Test results from ChEMBL document CHEMBL5335828, “Sacculatane Diterpenoids from the Liverwort Plagiochila nitens Collected in China” (J Nat Prod, 2024).
Values after ≈ are worked out from the molar mass of the structure shown.

Test system: Candida albicans
Experiment: Antifungal activity against Candida albicans DSY654 harboring CDR1-CDR2 double mutant assessed as inhibition of fungal growth incubated for 24 hrs by alamar blue assay
Type: functional
Details: not given

With `COC(=O)C1=CO[C@H]2OC(=O)[C@H]3[C@H]2[C@H]1[C@@H]1[C@H](C[C@H]3OC(C)=O)C1(C)C` as the molecule, how does the MIC read?
The MIC was 16 µg/mL (≈ 45.7 µM).

Test system: not listed separately
Experiment: Cytotoxicity against mouse Hepa1c1c7 cells incubated for 24 hrs by MTT assay
Type: functional, cell-based
Details: Hepa-1c1c7, 24 h

With `C=C1CC[C@H]2[C@](C)(CC[C@H](OC(C)=O)C(C)(C)O)[C@@H](OC(C)=O)CC[C@]2(CO)[C@H]1CO` as the molecule, how does the IC50 read?
Its IC50 is greater than 50 µM.

For `C=C1CC[C@H]2[C@](C)(CC[C@H](O)C(C)(C)O)CCC[C@]2(COC(C)=O)[C@H]1CO`, which IC50 is on record?
Its IC50 is greater than 50 µM.

For `C=C1CC[C@H]2[C@](C)(CC[C@H](O)C(C)(C)O)CCC[C@]2(CO)[C@H]1CO`, which IC50 is on record?
The IC50 was greater than 50 µM.

With `COC(=O)C1=CO[C@H]2OC(=O)[C@H]3[C@H]2[C@H]1[C@@H]1[C@H](C[C@H]3OC(C)=O)C1(C)C` as the molecule, how does the IC50 read?
The IC50 was greater than 50 µM.

Which IC50 does the source give for `C=C1CC[C@H]2[C@](C)(CC[C@H](O)C(C)(C)O)[C@@H](OC(C)=O)CC[C@]2(CO)[C@H]1CO` here?
The IC50 was greater than 50 µM.

Which IC50 does the source give for `C=C1C[C@H](O)[C@@H]2C3(CCC[C@@]2(C)CCC=C(C)C)[C@H](O)OC[C@@H]13` (some centres undefined) here?
The IC50 was greater than 50 µM.

Which IC50 does the source give for `CC(=O)O[C@H]1CC[C@@]23CO[C@](C)(CC[C@H]2[C@]1(C)CC[C@H](O)C(C)(C)O)[C@@H]3CO` here?
The IC50 was greater than 50 µM.

For `C=C1CC[C@H]2[C@](C)(CC[C@H](OC(C)=O)C(C)(C)O)CCC[C@]2(CO)[C@H]1CO`, which IC50 is on record?
Its IC50 is greater than 50 µM.
